# Experimental data reported in ChEMBL document CHEMBL3808302, “Novel Inhibitors of Toxin HipA Reduce Multidrug Tolerant Persisters” (ACS Med Chem Lett, 2016).
# Calls of active or inactive are those of the source. The rule behind the calls is not given here.
# Assays:
# [1] = test system: T1, Serine/threonine-protein kinase toxin HipA (Escherichia coli (strain K12)), P23874 [D309Q]; assay: (§1) Binding affinity to Escherichia coli HipA D309Q mutant expressed in Escherichia coli BL21 (DE3) by surface plasmon resonance assay
# T1 sequence (whole entry): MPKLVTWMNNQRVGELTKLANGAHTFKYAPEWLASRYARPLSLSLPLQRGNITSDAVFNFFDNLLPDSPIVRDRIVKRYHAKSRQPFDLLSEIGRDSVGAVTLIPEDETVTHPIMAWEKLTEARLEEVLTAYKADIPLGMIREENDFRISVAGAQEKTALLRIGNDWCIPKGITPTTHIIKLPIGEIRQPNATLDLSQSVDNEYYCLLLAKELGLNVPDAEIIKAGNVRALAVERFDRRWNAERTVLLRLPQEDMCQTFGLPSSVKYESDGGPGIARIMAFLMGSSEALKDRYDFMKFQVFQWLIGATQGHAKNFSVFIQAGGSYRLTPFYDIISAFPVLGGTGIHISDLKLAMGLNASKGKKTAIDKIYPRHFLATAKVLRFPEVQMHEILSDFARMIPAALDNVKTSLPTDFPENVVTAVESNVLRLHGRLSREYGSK
# [2] = biological target: Serine/threonine-protein kinase toxin HipA (Escherichia coli (strain K12), UniProt P23874, D309Q); assay: as §1
# [3] = test system: T1, Serine/threonine-protein kinase toxin HipA (Escherichia coli (strain K12)), P23874 [D309Q]; assay: Binding affinity to Escherichia coli HipA D309Q mutant expressed in Escherichia coli BL21 (DE3) assessed as slow-on/fast-off type binding at 0.00015 to 8.75 uM by surface plasmon resonance assay
# [4] = test system: T1, Serine/threonine-protein kinase toxin HipA (Escherichia coli (strain K12)), P23874 [D309Q]; assay: Binding affinity to Escherichia coli HipA D309Q mutant expressed in Escherichia coli BL21 (DE3) assessed as slow-on/fast-off type binding at 3.125 to 87.5 uM by surface plasmon resonance assay
# Escherichia coli [5] = assay: Cytotoxicity against Escherichia coli K-12 MG1655 cells at 250 uM; format: organism-based
# [6] = (§2) Inhibition of HipA in Escherichia coli K-12 MG1655 assessed as reduction of persister fraction incubated for 8 hrs in presence of ampicillin
# Escherichia coli K-12 [7] = assay: as §2
# Escherichia coli K-12 [8] = assay: Inhibition of HipA in Escherichia coli K-12 MG1655 assessed as reduction of persister fraction at 250 uM incubated for 8 hrs in presence of ampicillin relative to control
# [9] = (§3) Inhibition of HipA in Escherichia coli K-12 MG1655 assessed as reduction of persister fraction incubated for 8 hrs in presence of kanamycin
# Escherichia coli K-12 [10] = assay: as §3
# Escherichia coli K-12 [11] = assay: Inhibition of HipA in Escherichia coli K-12 MG1655 assessed as reduction of persister fraction incubated for 8 hrs in presence of kanamycin relative to control
# Escherichia coli [12] = assay: Antipersistence effect in hipA knockout Escherichia coli assessed as reduction of persister fraction at 200 uM in presence of ampicillin; format: functional, organism-based
# [13] = test system: T1, Serine/threonine-protein kinase toxin HipA (Escherichia coli (strain K12)), P23874 [D309Q]; assay: Binding affinity to Escherichia coli HipA D309Q mutant expressed in Escherichia coli BL21 (DE3) assessed as fast-on/fast-off type binding at 6.25 to 100 uM by surface plasmon resonance assay
# [14] = test system: T1, Serine/threonine-protein kinase toxin HipA (Escherichia coli (strain K12)), P23874 [D309Q]; assay: Binding affinity to Escherichia coli HipA D309Q mutant expressed in Escherichia coli BL21 (DE3) assessed as slow-on/slow-off type binding at 3.125 to 100 uM by surface plasmon resonance assay
Compound,Activity [1],Kd [2] [µM],Activity [3],Activity [4],Activity (Escherichia coli [5]),EC50 [6] [µM],inhibition (Escherichia coli K-12 [7]),fold change (FC) (Escherichia coli K-12 [8]),EC50 [9] [µM],inhibition (Escherichia coli K-12 [10]),fold change (FC) (Escherichia coli K-12 [11]),Activity (Escherichia coli [12]),Activity [13],Activity [14]
CCOC(=O)c1ccc(NC(=O)CSc2nnc(CSc3nc(C)cc(C)n3)o2)cc1,Dose-dependent effect,35,Active,Active,Non-toxic,116,Dose-dependent effect,2,43,Dose-dependent effect,3,–,–,–
CCc1ccc(C2C(C(=O)c3ccc(OC)cc3)=C(O)C(=O)N2CCc2c[nH]c3ccccc23)cc1 (stereo not drawn),Dose-dependent effect,0.27,Active,Active,Non-toxic,46,Dose-dependent effect,5,28,Dose-dependent effect,> 1,inactive,–,–
CCN1CCN(CCNC(=O)c2cccc(Nc3cc(-c4ccccc4)ncn3)c2)CC1,Dose-dependent effect,54,–,–,Non-toxic,126,Dose-dependent effect,5,111,Dose-dependent effect,5,–,Active,–
COc1cc(NC(=O)c2cc3nc(-c4ccc(F)cc4)cc(C)n3n2)cc([N+](=O)[O-])c1,Dose-dependent effect,43,–,–,Non-toxic,84,Dose-dependent effect,5,101,Dose-dependent effect,5,–,–,Active
